Reference: patent publication US20050214886A1, “TNF modulation” (YEDA RESEARCH AND DEVELOPMENT CO. LTD., priority 1995, published 2005)

Tested on: 26 kDa TNF molecules in HeLa-M9 cells
Assay: [32P] metabolic labeling and immunoprecipitation: phosphorylation of 26 kDa TNF
Assay type: cell-based, human
Settings: preliminary experiments, data not shown
Source text: The intracellular region is the only part of the TNF molecule accessible for phosphorylation by cytoplasmic protein kinases. The specific kinases involved in TNF phosphorylation are not known, nor is it known if, and in what way, the activity of these kinases is subject to modulation by agents that affect TNF activity. Evidently, the phosphorylation observed in the HeLa-M9 cells, in which TNF was synthesized without stimulation, reflects the function of kinase(s) that constitutively act in these cells. On the other hand, the phosphorylation observed in the LPS-stimulated MM6 cells could involve effects of LPS activated protein kinases (Liu et al., 1994; Han et al., 1995). The serine at position −50 seems to be a suitable substrate for phosphorylation by protein kinase C (Kennelly and Krebs, 1991).
Labeling of cells with [^35S]Met or [^32P) orthophosphate was performed by incubation in Met-free or phosphate-free medium, supplemented with 5 or 10% FCS, that had been dialyzed against either PBS or 0.9% NaCl, respectively. […]
Immunoprecipitation was performed using sheep anti-TNF antiserum or, as a control, non-immune sheep serum, at a dilution of 1:200. […] The immunoprecipitated proteins were analyzed by SDS-PAGE under reducing conditions (12% acrylamide). […]

CCCCCCCCCCCCCC(=O)O[C@@H]1[C@@H](C)[C@@]2(O)[C@@H](C=C(CO)C[C@]3(O)C(=O)C(C)=C[C@@H]23)[C@@H]2C(C)(C)[C@]12OC(C)=O [4β-phorbol-12-myristate-13-acetate]
increase of phosphorylation of the 26 kDa TNF molecules: did not observe any increase of phosphorylation
